Test results from US20260008787A1, “FUSED RING KRAS INHIBITORS FOR TREATING DISEASE” (BLOSSOMHILL THERAPEUTICS, INC., priority 2022, published 2026).

Columns and labels:
[1] = tested on: GP2D (KRAS G12D); experiment: Cell proliferation assay (CellTiter-Glo, 72 hours), GP2D; type: cell-based; conditions: GP2d, 72 h, 384-well, CellTiter-Glo 2.0
Procedure: (§1) Two thousand KRAS mutant cells per well were seeded in 384-well white plate and then treated with indicated compounds for 72 hours at 37° C. and 5% CO2. Cell proliferation was measured using CellTiter-Glo 2.0 luciferase-based ATP detection assay (Promega, Madison, WI) following the manufacturer's protocol. IC50 values were determined using Prism software (GraphPad Software, San Diego, CA).

[2] = tested on: SW620 (KRAS G12V); experiment: Cell proliferation assay (CellTiter-Glo, 72 hours), SW620; type: cell-based; conditions: Homo sapiens, SW-620, 72 h, 384-well, CellTiter-Glo 2.0
Procedure: as §1

[3] = biological target: KRAS G12V (Homo sapiens, UniProt P01116, G12V); experiment: biochemical
[4] = biological target: KRAS G12D (Homo sapiens, UniProt P01116, G12D); experiment: biochemical
[5] = tested on: AGS (G12D); experiment: Cell proliferation assay (CellTiter-Glo, 72 hours), AGS; type: cell-based; conditions: 72 h, 384-well, CellTiter-Glo 2.0
Procedure: as §1

Chain of KRAS G12V (P01116 1-188 isoform P01116-2 G12V): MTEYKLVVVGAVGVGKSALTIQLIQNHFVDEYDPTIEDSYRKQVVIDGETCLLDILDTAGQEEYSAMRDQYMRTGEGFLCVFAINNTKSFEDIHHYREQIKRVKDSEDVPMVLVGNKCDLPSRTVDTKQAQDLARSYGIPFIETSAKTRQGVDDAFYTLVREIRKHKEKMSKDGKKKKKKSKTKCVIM
Chain of KRAS G12D (P01116 1-188 isoform P01116-2 G12D): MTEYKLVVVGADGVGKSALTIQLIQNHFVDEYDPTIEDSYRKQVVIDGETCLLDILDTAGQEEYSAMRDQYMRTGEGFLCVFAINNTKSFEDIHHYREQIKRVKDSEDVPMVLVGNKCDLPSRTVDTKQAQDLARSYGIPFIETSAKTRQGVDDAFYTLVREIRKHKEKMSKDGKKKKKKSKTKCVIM

SMILES	IC50 [1] [nM]	IC50 [2] [nM]	IC50 [3] [nM]	IC50 [4] [nM]	IC50 [5] [nM]
C#Cc1c(F)ccc2cc(O)cc(-c3nc4c5c(nc(OCC67CCCN6C/C(=C/F)C7)nc5c3F)N3CCCC[C@H]3CO4)c12 (stereo partly drawn) [Example 79, 5-ethynyl-6-fluoro-4-[(8aS)-4-fluoro-2-{[(2E)-2-(fluoromethylidene)tetrahydro-1H-pyrrolizin-7a(5H)-yl]methoxy}-8,8a,9,10,11,12-hexahydro-7-oxa-1,3,6,12a-tetraazabenzo[4,5]cyclohepta[1,2,3-de]naphthalen-5-yl]naphthalen-2-ol]	2.26	11.2	1.69	1.65	3.33
C#Cc1c(F)ccc2cc(O)cc(-c3nc4c5c(nc(OC[C@@]67CCCN6C[C@H](F)C7)nc5c3F)NCCO4)c12 [Example 82, 5-ethynyl-6-fluoro-4-(4-fluoro-2-{[(2R,7aS)-2-fluorotetrahydro-1H-pyrrolizin-7a(5H)-yl]methoxy}-9,10-dihydro-8H-7-oxa-1,3,6,10-tetraazacyclohepta[1,2,3-de]naphthalen-5-yl)naphthalen-2-ol]	470	> 3000	2.79	2.64	1440
N#Cc1c(N)sc2c(F)ccc(-c3nc4c5c(nc(OC[C@@]67CCCN6C[C@H](F)C7)nc5c3F)N3CCCC[C@H]3CO4)c12 [Example 85, 2-amino-7-fluoro-4-[(8aS)-4-fluoro-2-{[(2R,7aS)-2-fluorotetrahydro-1H-pyrrolizin-7a(5H)-yl]methoxy}-8,8a,9,10,11,12-hexahydro-7-oxa-1,3,6,12a-tetraazabenzo[4,5]cyclohepta[1,2,3-de]naphthalen-5-yl]-1-benzothiophene-3-carbonitrile]	143	820	2.17	2.35	631
C#Cc1c(F)ccc2cc(F)cc(-c3nc4c5c(nc(OC[C@@]67CCCN6C[C@H](F)C7)nc5c3F)N3CCCC[C@H]3CO4)c12 [Example 89, (7S)-12-(8-ethynyl-3,7-difluoro-1-naphthyl)-13-fluoro-16-[[(2R,8S)-2-fluoro-1,2,3,5,6,7-hexahydropyrrolizin-8-yl]methoxy]-9-oxa-2,11,15,17-tetrazatetracyclo[8.7.1.02,7.014,18]octadeca-1 (17),10 (18),11,13,15-pentaene]	1170	> 3000	4.2	3.93	> 3000
C#Cc1c(F)ccc2cc(O)cc(-c3nc4c5c(nc(OC[C@@]67CCCN6C[C@H](F)C7)nc5c3F)N(C)C3(CC3)CO4)c12 [Example 93]	140	981	1.55	1.99	560
C#Cc1c(F)ccc2cc(O)cc(-c3nc4c5c(nc(OC[C@@]67CCCN6C[C@H](F)C7)nc5c3F)N(C)[C@@H](CC)CO4)c12 [Example 96, 4-[(9S)-9-ethyl-4-fluoro-2-{[(2R,7aS)-2-fluorotetrahydro-1H-pyrrolizin-7a(5H)-yl]methoxy}-10-methyl-9,10-dihydro-8H-7-oxa-1,3,6,10-tetraazacyclohepta[1,2,3-de]naphthalen-5-yl]-5-ethynyl-6-fluoronaphthalen-2-ol]	16.8	92.6	2.46	2.39	82.9
CCc1c(F)ccc2cc(O)cc(-c3nc4c5c(nc(OC[C@@]67CCCN6C[C@H](F)C7)nc5c3F)N(C)[C@@H](CC)CO4)c12 [Example 99]	22.4	96.8	1.02	0.85	86.3
C#Cc1c(F)ccc2cc(O)cc(-c3nc4c5c(nc(OC[C@@]67CCCN6C[C@H](F)C7)nc5c3F)N3CCCC(O4)C3CO)c12 (stereo partly shown) [Example 104]	188	903	9.01	7.51	666
C#Cc1c(F)ccc2cc(O)cc(-c3nc4c5c(nc(OC[C@@]67CCCN6C[C@H](F)C7)nc5c3F)N3CC=CC[C@H]3CO4)c12 [Example 106, 5-ethynyl-6-fluoro-4-[(7S)-13-fluoro-16-[[(2R,8S)-2-fluoro-1,2,3,5,6,7-hexahydropyrrolizin-8-yl]methoxy]-9-oxa-2,11,15,17-tetrazatetracyclo [8.7.1.0^2,7.0^14,18]octadeca-1 (17),4,10 (18),11,13,15-hexaen-12-yl]naphthalen-2-ol]	14.6	64.5	3.83	3.26	48.8
C#Cc1c(F)ccc2cc(O)cc(-c3nc4c5c(nc(OC[C@@]67CCCN6C[C@H](F)C7)nc5c3F)N3CC(C#N)CCC3CO4)c12 (stereo partly drawn) [Example 109, 5-(8-ethynyl-7-fluoro-3-hydroxynaphthalen-1-yl)-4-fluoro-2-{[(2R,7aS)-2-fluorotetrahydro-1H-pyrrolizin-7a(5H)-yl]methoxy}-8,8a,9,10,11,12-hexahydro-7-oxa-1,3,6,12a-tetraazabenzo[4,5]cyclohepta[1,2,3-de]naphthalene-11-carbonitrile]	2000	> 3000	27	15.9	> 3000
C#Cc1c(F)ccc2cc(O)cc(-c3nc4c5c(nc(OC[C@@]67CCCN6C[C@H](F)C7)nc5c3F)N3CC(C(N)=O)CCC3CO4)c12 (stereo partly drawn) [Example 110, 5-(8-ethynyl-7-fluoro-3-hydroxynaphthalen-1-yl)-4-fluoro-2-{[(2R,7aS)-2-fluorotetrahydro-1H-pyrrolizin-7a(5H)-yl]methoxy}-8,8a,9,10,11,12-hexahydro-7-oxa-1,3,6,12a-tetraazabenzo[4,5]cyclohepta[1,2,3-de]naphthalene-11-carboxamide]	> 3000	> 3000	> 10000	> 10000	> 3000
CC[C@H]1COc2nc(-c3cc(O)cc4ccc(F)c(Cl)c34)c(F)c3nc(OC[C@@]45CCCN4C[C@H](F)C5)nc(c23)N1C [Example 111, 5-chloro-4-[(9S)-9-ethyl-4-fluoro-2-{[(2R,7aS)-2-fluorotetrahydro-1H-pyrrolizin-7a(5H)-yl]methoxy}-10-methyl-9,10-dihydro-8H-7-oxa-1,3,6,10-tetraazacyclohepta[1,2,3-de]naphthalen-5-yl]-6-fluoronaphthalen-2-ol]	59.7	499	1.41	1.28	361
C#Cc1c(F)ccc2cc(O)cc(-c3nc4c5c(nc(OC[C@@]67CCCN6C[C@H](F)C7)nc5c3F)N3C[C@H](C#N)CC[C@H]3CO4)c12 [Example 118, (5aS,8R)-2-(8-ethynyl-7-fluoro-3-hydroxynaphthalen-1-yl)-1-fluoro-11-(((2R,7aS)-2-fluorotetrahydro-1H-pyrrolizin-7a(5H)-yl)methoxy)-5,5a,6,7,8,9-hexahydro-4-oxa-3,9a,10,12-tetraazabenzo[4,5]cyclohepta[1,2,3-de]naphthalene-8-carbonitrile]	> 3000	> 3000	58.9	52.5	> 3000
CCc1c(F)ccc2cc(O)cc(-c3nc4c5c(nc(OC[C@@]67CCCN6C[C@H](F)C7)nc5c3F)N3CCCC(O)C3CO4)c12 (stereo partly drawn) [Example 119, 5-(8-ethyl-7-fluoro-3-hydroxynaphthalen-1-yl)-4-fluoro-2-{[(2R,7aS)-2-fluorotetrahydro-1H-pyrrolizin-7a(5H)-yl]methoxy}-8,8a,9,10,11,12-hexahydro-7-oxa-1,3,6,12a-tetraazabenzo[4,5]cyclohepta[1,2,3-de]naphthalen-9-ol]	103	307	2.16	2.48	258
C#Cc1c(F)ccc2cc(O)cc(-c3nc4c5c(nc(OC[C@@]67CCCN6C[C@H](F)C7)nc5c3F)N3CCCCC3CC4)c12 (stereo partly drawn) [Example 121, 5-ethynyl-6-fluoro-4-(4-fluoro-2-{[(2R,7aS)-2-fluorotetrahydro-1H-pyrrolizin-7a(5H)-yl]methoxy}-8,8a,9,10,11,12-hexahydro-7H-1,3,6,12a-tetraazabenzo[4,5]cyclohepta[1,2,3-de]naphthalen-5-yl)naphthalen-2-ol]	3.67	16.6	1.99	1.74	21.5
C#Cc1c(F)ccc2cc(O)cc(-c3nc4c5c(nc(OC[C@@]67CCCN6C[C@H](F)C7)nc5c3F)NCCC4)c12 [Example 122, 5-ethynyl-6-fluoro-4-(4-fluoro-2-{[(2R,7aS)-2-fluorotetrahydro-1H-pyrrolizin-7a(5H)-yl]methoxy}-7,8,9,10-tetrahydro-1,3,6,10-tetraazacyclohepta[1,2,3-de]naphthalen-5-yl)naphthalen-2-ol]	2410	4900	16.9	14.8	5490
C#Cc1c(F)ccc2cc(O)cc(-c3nc4c5c(nc(OC[C@@]67CCCN6C[C@H](F)C7)nc5c3F)N[C@@H](C3CCCO3)CO4)c12 (stereo partly drawn) [Example 126, 5-ethynyl-6-fluoro-4-((9R)-4-fluoro-2-(((2R,7aS)-2-fluorotetrahydro-1H-pyrrolizin-7a(5H)-yl)methoxy)-9-(tetrahydrofuran-2-yl)-9,10-dihydro-8H-7-oxa-1,3,6,10-tetraazacyclohepta[de]naphthalen-5-yl)naphthalen-2-ol]	> 3000	109	30.2	111	> 3000
